Test system: HIV-1
Assay: IC50 determination of an anti-viral (Table 3)
Format: cell-based
Conditions: Human immunodeficiency virus 1

Q: Which IC50 does the source give for `CCCCC#CCSc1ccccc1OCCCC` [BPHS] here?
A: 40 µM
